This is an account of results in US10647713B2 (Nimbus Lakshmi, Inc., priority 2016, dated 2020).

Sequence of human TYK2 (JH2domain-pseudokinase) (P29597 556-888): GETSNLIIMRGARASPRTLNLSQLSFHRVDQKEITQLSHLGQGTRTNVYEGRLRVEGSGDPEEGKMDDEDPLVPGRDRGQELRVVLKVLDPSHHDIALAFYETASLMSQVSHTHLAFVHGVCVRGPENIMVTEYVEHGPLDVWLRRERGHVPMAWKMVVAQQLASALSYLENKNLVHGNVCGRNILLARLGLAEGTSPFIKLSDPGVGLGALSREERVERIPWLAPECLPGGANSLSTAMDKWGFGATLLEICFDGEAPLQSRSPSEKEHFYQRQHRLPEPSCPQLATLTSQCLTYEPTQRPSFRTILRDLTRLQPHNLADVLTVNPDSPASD

The target in the assay is human TYK2 (JH2domain-pseudokinase) (Homo sapiens (Human), UniProt P29597). Description: TYK2 JH2 Domain Binding Assay (KINOMEscan, DiscoveRx). The following applies: 11-point dilution, duplicate. The procedure, abridged:
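Kd from duplicate 11-point 3-fold dilutions starting at 30,000 nM, fitted by Hill equation with slope fixed at −1. Compounds (final 0.9% DMSO) displace DNA-tagged HEK293-expressed TYK2 JH2 fusion (<0.1 nM) from ligand-coated beads over 1 h at room temperature; eluted kinase read by qPCR.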
`Cc1cc(-c2ccc(Nc3cc(NC(=O)[C@@H]4CC4(F)F)nc4[nH]c(C(F)F)nc34)c(S(C)(=O)=O)c2)nn1C` [I-313, (S)—N-(2-(difluoromethyl)-7-((4-(1,5-dimethyl-1H-pyrazol-3-yl)-2-(methylsulfonyl)phenyl)amino)-3H-imidazo[4,5-b]pyridin-5-yl)-2,2-difluorocyclopropane-1-carboxamide] showed a Kd of 0.5 to 1 nM.

For `Cc1cc(-c2ccc(Nc3cc(NC(=O)[C@H]4CC4(F)F)nc4[nH]c(C(F)F)nc34)c(S(C)(=O)=O)c2)nn1C` [I-314, (R)—N-(2-(difluoromethyl)-7-((4-(1,5-dimethyl-1H-pyrazol-3-yl)-2-(methylsulfonyl)phenyl)amino)-3H-imidazo[4,5-b]pyridin-5-yl)-2,2-difluorocyclopropane-1-carboxamide], the equilibrium dissociation constant (Kd) fell in the range of 1 to 10 nM.

Compound `Cc1cn(C)nc1-c1ccc(Nc2cc(Nc3cnc(C)c(C)n3)nc3[nH]c(C(F)F)nc23)c(S(C)(=O)=O)c1` [I-315, 2-(difluoromethyl)-N7-(4-(1,4-dimethyl-1H-pyrazol-3-yl)-2-(methylsulfonyl)phenyl)-N5-(5,6-dimethylpyrazin-2-yl)-3H-imidazo[4,5-b]pyridine-5,7-diamine] yielded a Kd of 0.1 to 0.5 nM.

Turning to `CS(=O)(=O)c1cc([C@@H]2CCCO2)ccc1Nc1cc(NC(=O)[C@@H]2CC2(F)F)nc2[nH]c(C(F)F)nc12` [I-316, (S)—N-(2-(difluoromethyl)-7-((2-(methylsulfonyl)-4-((S)-tetrahydrofuran-2-yl)phenyl)amino)-3-imidazo[4,5-b]pyridin-5-yl)-2,2-difluorocyclopropane-1-carboxamide], the Kd lay in the range of 0.5 to 1 nM.

Consider `CS(=O)(=O)c1cc([C@@H]2CCCO2)ccc1Nc1cc(NC(=O)[C@H]2CC2(F)F)nc2[nH]c(C(F)F)nc12` [I-317, (R)—N-(2-(difluoromethyl)-7-((2-(methylsulfonyl)-4-((S)-tetrahydrofuran-2-yl)phenyl)amino)-3-imidazo[4,5-b]pyridin-5-yl)-2,2-difluorocyclopropane-1-carboxamide], for which the Kd fell in the range of 0.1 to 0.5 nM.

With `CS(=O)(=O)c1cc(C2CCC2)ccc1Nc1cc(NC(=O)[C@@H]2CC2(F)F)nc2[nH]c(C(F)F)nc12` [I-318, (S)—N-(7-((4-cyclobutyl-2-(methylsulfonyl)phenyl)amino)-2-(difluoromethyl)-3H-imidazo[4,5-b]pyridin-5-yl)-2,2-difluorocyclopropane-1-carboxamide], the Kd is greater than 10 nM.

For the compound `CS(=O)(=O)c1cc(C2CCC2)ccc1Nc1cc(NC(=O)[C@H]2CC2(F)F)nc2[nH]c(C(F)F)nc12` [I-319, (R)—N-(7-((4-cyclobutyl-2-(methylsulfonyl)phenyl)amino)-2-(difluoromethyl)-3H-imidazo[4,5-b]pyridin-5-yl)-2,2-difluorocyclopropane-1-carboxamide], the Kd was greater than 10 nM.

For `COc1c(Nc2cc(NC(=O)C3CC3)nc3[nH]c(C(F)F)nc23)cccc1-c1nc(C)cs1` [I-320, N-(2-(difluoromethyl)-7-((2-methoxy-3-(4-methylthiazol-2-yl)phenyl)amino)-3H-imidazo[4,5-b]pyridin-5-yl)cyclopropanecarboxamide], the Kd was in the range of 1 to 10 nM.

As for `COc1c(Nc2cc(NC(=O)C3CC3)nc3[nH]c(C)nc23)cccc1-c1nc(C)cs1` [I-321, N-(7-((2-methoxy-3-(4-methylthiazol-2-yl)phenyl)amino)-2-methyl-3H-imidazo[4,5-b]pyridin-5-yl)cyclopropanecarboxamide], the Kd lay in the range of 1 to 10 nM.

In turn, `Cn1cnc(-c2ccc(Nc3cc(NC(=O)[C@@H]4C[C@@H]4F)nc4[nH]c(C(F)F)nc34)c(S(C)(=O)=O)c2)c1` [I-322, (1S,2S)—N-(2-(difluoromethyl)-7-((4-(1-methyl-1H-imidazol-4-yl)-2-(methylsulfonyl)phenyl)amino)-3H-imidazo[4,5-b]pyridin-5-yl)-2-fluorocyclopropane-1-carboxamide] had a dissociation constant Kd of 0.1 to 0.5 nM.

`Cc1nc2c(Nc3ccc([C@@H]4CCCCO4)cc3S(C)(=O)=O)cc(NC(=O)[C@H]3CC3(F)F)nc2[nH]1` [I-323, 2,2-difluoro-N-(2-methyl-7-((2-(methylsulfonyl)-4-((S)-tetrahydro-2H-pyran-2-yl)phenyl)amino)-3H-imidazo[4,5-b]pyridin-5-yl)cyclopropane-1-carboxamide] displayed a Kd of 0.1 to 0.5 nM.

For the compound `CS(=O)(=O)c1cc([C@@H]2CCCCO2)ccc1Nc1cc(NC(=O)C2CC2(F)F)nc2[nH]c(C(F)F)nc12` (stereo partly drawn) [I-325, N-(2-(difluoromethyl)-7-((2-(methylsulfonyl)-4-((S)-tetrahydro-2H-pyran-2-yl)phenyl)amino)-3H-imidazo[4,5-b]pyridin-5-yl)-2,2-difluorocyclopropane-1-carboxamide], the Kd is 0.5 to 1 nM.

On to `CS(=O)(=O)c1cc([C@H]2CCCCO2)ccc1Nc1cc(NC(=O)[C@H]2CC2(F)F)nc2[nH]c(C(F)F)nc12` [I-326, N-(2-(difluoromethyl)-7-((2-(methylsulfonyl)-4-((R)-tetrahydro-2H-pyran-2-yl)phenyl)amino)-3H-imidazo[4,5-b]pyridin-5-yl)-2,2-difluorocyclopropane-1-carboxamide], for which the Kd was 1 to 10 nM.

The compound `CS(=O)(=O)c1cc([C@@H]2CCCO2)ccc1Nc1cc(NC(=O)C2CC2(F)F)nc2[nH]c(C(F)F)nc12` (stereo partly drawn) [I-327, N-(2-(difluoromethyl)-7-((2-(methylsulfonyl)-4-((S)-tetrahydrofuran-2-yl)phenyl)amino)-3H-imidazo[4,5-b]pyridin-5-yl)-2,2-difluorocyclopropane-1-carboxamide] had a Kd of 0.1 to 0.5 nM.

With `CN=S(C)(=O)c1ccccc1Nc1cc(NC(=O)C2CC2)nc2[nH]c(C)nc12` (centres unmarked) [I-328, N-(7-((2-(N,S-dimethylsulfonimidoyl)phenyl)amino)-2-methyl-3H-imidazo[4,5-b]pyridin-5-yl)cyclopropanecarboxamide], the Kd is 0.1 to 0.5 nM.

For `CS(=O)(=O)c1cc([C@H]2CCCO2)ccc1Nc1cc(NC(=O)C2CC2(F)F)nc2[nH]c(C(F)F)nc12` (stereo partly drawn) [I-329, N-(2-(difluoromethyl)-7-((2-(methylsulfonyl)-4-((R)-tetrahydrofuran-2-yl)phenyl)amino)-3H-imidazo[4,5-b]pyridin-5-yl)-2,2-difluorocyclopropane-1-carboxamide], the Kd lay within 1 to 10 nM.

Compound `Cc1nc2c(Nc3ccc(C4CCC(C)(C)O4)cc3S(C)(=O)=O)cc(NC(=O)C3CC3)nc2[nH]1` (centres unmarked) [I-330, N-(7-((4-(5,5-dimethyltetrahydrofuran-2-yl)-2-(methylsulfonyl)phenyl)amino)-2-methyl-3H-imidazo[4,5-b]pyridin-5-yl)cyclopropanecarboxamide] registered a Kd of 0.1 to 0.5 nM.

`Cc1c(-c2ccc(Nc3cc(NC(=O)C4CC4(F)F)nc4[nH]c(C(F)F)nc34)c(S(C)(=O)=O)c2)cnn1C` (centres unmarked) [I-331, N-(2-(difluoromethyl)-7-((4-(1,5-dimethyl-1H-pyrazol-4-yl)-2-(methylsulfonyl)phenyl)amino)-3H-imidazo[4,5-b]pyridin-5-yl)-2,2-difluorocyclopropane-1-carboxamide]: the dissociation constant (Kd) is 0.1 to 0.5 nM.

`CC1(C)CCC(c2ccc(Nc3cc(NC(=O)C4CC4)nc4[nH]c(C(F)F)nc34)c(S(C)(=O)=O)c2)O1` (centres unmarked) [I-332] displayed a dissociation constant (Kd) of 0.1 to 0.5 nM.

`C[S+]([O-])c1ccccc1Nc1cc(NC(=O)C2CC2)nc2[nH]c(C(F)F)nc12` (centres unmarked) [I-333, N-(2-(difluoromethyl)-7-((2-(methylsulfinyl)phenyl)amino)-3H-imidazo[4,5-b]pyridin-5-yl)cyclopropanecarboxamide]: the Kd is 1 to 10 nM.
